Laboratory results published in ChEMBL document CHEMBL1799924, “Synthesis and activities of naphthalimide azoles as a new type of antibacterial and antifungal agents” (2011).
Values after ≈ are worked out from the molar mass of the structure shown.

What was measured:
[1] = tested on: Staphylococcus aureus; assay: Antibacterial activity against methicillin-resistant Staphylococcus aureus N 315 by microbroth dilution method; format: functional
[2] = tested on: Bacillus; assay: Antibacterial activity against Bacillus proteus by microbroth dilution method; format: functional
[3] = tested on: Staphylococcus aureus; assay: Antibacterial activity against Staphylococcus aureus ATCC 25923 by microbroth dilution method; format: functional
[4] = tested on: Pseudomonas aeruginosa; assay: Antibacterial activity against Pseudomonas aeruginosa by microbroth dilution method; format: functional
[5] = tested on: Bacillus subtilis; assay: Antibacterial activity against Bacillus subtilis ATCC 6633 by microbroth dilution method; format: functional
[6] = tested on: Salmonella typhi; assay: Antibacterial activity against Bacillus typhi by microbroth dilution method; format: functional, Salmonella enterica subsp. enterica serovar Typhi; settings: Salmonella enterica
[7] = tested on: Escherichia coli; assay: Antibacterial activity against Escherichia coli JM 109 by microbroth dilution method; format: functional
[8] = tested on: Candida; assay: Antifungal activity against Candida mycoderma by microbroth dilution method; format: functional
[9] = tested on: Candida albicans; assay: Antifungal activity against Candida albicans ATCC 76615 by microbroth dilution method; format: functional
[10] = tested on: Micrococcus luteus; assay: Antibacterial activity against Micrococcus luteus by microbroth dilution method; format: functional

Row | SMILES | MIC [1] | MIC [2] | MIC [3] | MIC [4] | MIC [5] | MIC [6] | MIC [7] | MIC [8] | MIC [9] | MIC [10]
1 | O=C1c2cccc3c(Br)ccc(c23)C(=O)N1CCCCCCn1cc[n+](Cc2ccc(F)cc2F)c1.[Br-] | 16 µg/mL | 32 µg/mL | 16 µg/mL | 64 µg/mL | 16 µg/mL | 32 µg/mL | 32 µg/mL | 32 µg/mL | 32 µg/mL | 32 µg/mL
2 | O=C1c2cccc3c(Br)ccc(c23)C(=O)N1CCCn1c[n+](Cc2ccc([N+](=O)[O-])cc2)cn1.[Br-] | 16 µg/mL | 16 µg/mL | 32 µg/mL | 32 µg/mL | 32 µg/mL | 32 µg/mL | 16 µg/mL | 16 µg/mL | 32 µg/mL | 32 µg/mL
3 | O=C1c2cccc3c(Br)ccc(c23)C(=O)N1CCCn1cncn1 | > 512 µg/mL | 256 µg/mL (≈ 665 µM) | > 512 µg/mL | 256 µg/mL (≈ 665 µM) | 256 µg/mL (≈ 665 µM) | > 512 µg/mL | > 512 µg/mL | 256 µg/mL (≈ 665 µM) | 256 µg/mL (≈ 665 µM) | > 512 µg/mL
4 | O=C1c2cccc3c(Br)ccc(c23)C(=O)N1CCCn1cc[n+](Cc2ccc(F)cc2F)c1.[Br-] | 4 µg/mL | 8 µg/mL | 4 µg/mL | 8 µg/mL | 8 µg/mL | 8 µg/mL | 8 µg/mL | 32 µg/mL | 32 µg/mL | 8 µg/mL
5 | O=C1c2cccc3c(Br)ccc(c23)C(=O)N1CCCCCn1cncn1 | > 512 µg/mL | > 512 µg/mL | > 512 µg/mL | 256 µg/mL (≈ 619 µM) | > 512 µg/mL | > 512 µg/mL | > 512 µg/mL | > 512 µg/mL | > 512 µg/mL | > 512 µg/mL
6 | O=C1c2cccc3c(Br)ccc(c23)C(=O)N1CCCCn1ccnc1 | 16 µg/mL (≈ 40.2 µM) | 16 µg/mL (≈ 40.2 µM) | 16 µg/mL (≈ 40.2 µM) | 16 µg/mL (≈ 40.2 µM) | 32 µg/mL (≈ 80.3 µM) | 16 µg/mL (≈ 40.2 µM) | 8 µg/mL (≈ 20.1 µM) | 32 µg/mL (≈ 80.3 µM) | 64 µg/mL (≈ 161 µM) | 16 µg/mL (≈ 40.2 µM)
7 | O=C1c2cccc3c(Br)ccc(c23)C(=O)N1CCCn1c[n+](Cc2ccc(Cl)cc2)cn1.[Br-] | 8 µg/mL | 16 µg/mL | 32 µg/mL | 8 µg/mL | 16 µg/mL | 16 µg/mL | 8 µg/mL | 16 µg/mL | 16 µg/mL | 8 µg/mL
8 | O=C1c2cccc3c(Br)ccc(c23)C(=O)N1CCCCn1c[n+](Cc2ccc(F)cc2F)cn1.[Br-] | 16 µg/mL | 16 µg/mL | 16 µg/mL | 2 µg/mL | 16 µg/mL | 8 µg/mL | 8 µg/mL | 32 µg/mL | 16 µg/mL | 16 µg/mL
9 | C[C@@H]1CN(c2c(F)c(F)c3c(=O)c(C(=O)O)cn(C4CC4)c3c2F)C[C@H](C)N1 [ORBIFLOXACIN] | 1 µg/mL (≈ 2.53 µM) | 4 µg/mL (≈ 10.1 µM) | 2 µg/mL (≈ 5.06 µM) | 1 µg/mL (≈ 2.53 µM) | 2 µg/mL (≈ 5.06 µM) | 1 µg/mL (≈ 2.53 µM) | 1 µg/mL (≈ 2.53 µM) |  |  | 1 µg/mL (≈ 2.53 µM)
10 | O=C1c2cccc3c(Br)ccc(c23)C(=O)N1CCCn1c[n+](Cc2ccc(Cl)c(Cl)c2)cn1.[Br-] | 16 µg/mL | 32 µg/mL | 16 µg/mL | 16 µg/mL | 32 µg/mL | 16 µg/mL | 16 µg/mL | 16 µg/mL | 16 µg/mL | 16 µg/mL
11 | O=C1c2cccc3c(Br)ccc(c23)C(=O)N1CCCn1ccnc1 | 16 µg/mL (≈ 41.6 µM) | 16 µg/mL (≈ 41.6 µM) | 16 µg/mL (≈ 41.6 µM) | 32 µg/mL (≈ 83.3 µM) | 16 µg/mL (≈ 41.6 µM) | 16 µg/mL (≈ 41.6 µM) | 16 µg/mL (≈ 41.6 µM) | 64 µg/mL (≈ 167 µM) | 64 µg/mL (≈ 167 µM) | 16 µg/mL (≈ 41.6 µM)
12 | OC(Cn1cncn1)(Cn1cncn1)c1ccc(F)cc1F [FLUCONAZOLE] |  |  |  |  |  |  |  | 4 µg/mL (≈ 13.1 µM) | 1 µg/mL (≈ 3.27 µM) | 
13 | O=C1c2cccc3c(Br)ccc(c23)C(=O)N1CCCCn1cc[n+](Cc2ccc(F)cc2F)c1.[Br-] | 2 µg/mL | 16 µg/mL | 8 µg/mL | 16 µg/mL | 8 µg/mL | 8 µg/mL | 8 µg/mL | 16 µg/mL | 32 µg/mL | 8 µg/mL
14 | O=C1c2cccc3c(Br)ccc(c23)C(=O)N1CCCCCn1c[n+](Cc2ccc(F)cc2F)cn1.[Br-] | 16 µg/mL | 32 µg/mL | 32 µg/mL | 2 µg/mL | 32 µg/mL | 16 µg/mL | 8 µg/mL | 16 µg/mL | 16 µg/mL | 16 µg/mL
15 | O=C1c2cccc3c(Br)ccc(c23)C(=O)N1CCCCCCn1c[n+](Cc2ccc(F)cc2F)cn1.[Br-] | 32 µg/mL | 32 µg/mL | 16 µg/mL | 8 µg/mL | 16 µg/mL | 16 µg/mL | 32 µg/mL | 64 µg/mL | 32 µg/mL | 32 µg/mL
16 | O=C1c2cccc3c(Br)ccc(c23)C(=O)N1CCCCn1cncn1 | > 512 µg/mL | 256 µg/mL (≈ 641 µM) | > 512 µg/mL | 256 µg/mL (≈ 641 µM) | > 512 µg/mL | > 512 µg/mL | > 512 µg/mL | > 512 µg/mL | > 512 µg/mL | > 512 µg/mL
17 | O=C1c2cccc3c(Br)ccc(c23)C(=O)N1CCCn1c[n+](Cc2ccc(Cl)cc2Cl)cn1.[Br-] | 16 µg/mL | 4 µg/mL | 16 µg/mL | 4 µg/mL | 8 µg/mL | 16 µg/mL | 4 µg/mL | 8 µg/mL | 8 µg/mL | 8 µg/mL
18 | O=C1c2cccc3c(Br)ccc(c23)C(=O)N1CCCCCCn1ccnc1 | 64 µg/mL (≈ 150 µM) | 16 µg/mL (≈ 37.5 µM) | 64 µg/mL (≈ 150 µM) | 128 µg/mL (≈ 300 µM) | 16 µg/mL (≈ 37.5 µM) | 32 µg/mL (≈ 75.1 µM) | 64 µg/mL (≈ 150 µM) | 32 µg/mL (≈ 75.1 µM) | 32 µg/mL (≈ 75.1 µM) | 128 µg/mL (≈ 300 µM)
19 | O=C1c2cccc3c(Br)ccc(c23)C(=O)N1CCCCCn1cc[n+](Cc2ccc(F)cc2F)c1.[Br-] | 8 µg/mL | 4 µg/mL | 16 µg/mL | 16 µg/mL | 16 µg/mL | 16 µg/mL | 16 µg/mL | 16 µg/mL | 16 µg/mL | 4 µg/mL
20 | O=C(N[C@H](CO)[C@H](O)c1ccc([N+](=O)[O-])cc1)C(Cl)Cl [CHLORAMPHENICOL] | 4 µg/mL (≈ 12.4 µM) | 2 µg/mL (≈ 6.19 µM) | 2 µg/mL (≈ 6.19 µM) | 16 µg/mL (≈ 49.5 µM) | 4 µg/mL (≈ 12.4 µM) | 8 µg/mL (≈ 24.8 µM) | 8 µg/mL (≈ 24.8 µM) |  |  | 8 µg/mL (≈ 24.8 µM)
21 | O=C1c2cccc3c(Br)ccc(c23)C(=O)N1CCCn1c[n+](Cc2ccccc2Cl)cn1.[Br-] | 16 µg/mL | 32 µg/mL | 16 µg/mL | 16 µg/mL | 32 µg/mL | 32 µg/mL | 16 µg/mL | 32 µg/mL | 8 µg/mL | 16 µg/mL
22 | O=C1c2cccc3c(Br)ccc(c23)C(=O)N1CCCCCn1ccnc1 | 128 µg/mL (≈ 310 µM) | 32 µg/mL (≈ 77.6 µM) | 64 µg/mL (≈ 155 µM) | 64 µg/mL (≈ 155 µM) | 64 µg/mL (≈ 155 µM) | 128 µg/mL (≈ 310 µM) | 32 µg/mL (≈ 77.6 µM) | 64 µg/mL (≈ 155 µM) | 128 µg/mL (≈ 310 µM) | 64 µg/mL (≈ 155 µM)
